Test results: US7202216B2 (The Board of Trustees of the Leland Stanford Junior …, priority 2002, dated 2007)
Where no end group is shown, it is not given here.

Key:
[1] = BBM fractions prepared from rat small intestinal mucosa
[2] = test system: gastric and pancreatic proteases (pepsin, trypsin, chymotrypsin, elastase, carboxypeptidase)
[3] = Amount of peptides digested after 15 hours (Table 1, samples H1P0-H5P0); type: in vitro ADME
[4] = test system: small intestinal brush-border membrane (BBM) enzymes; test: Brush-border membrane (BBM) digestion of gliadin peptides; conditions: 12 ng/μl BBM protein, rat small intestinal mucosa
[5] = target: T1, tissue transglutaminase (tTGase) (Homo sapiens, UniProt P21980); conditions: vs natural substrate fibrinogen; cited from earlier work
T1 sequence (P21980 1-687): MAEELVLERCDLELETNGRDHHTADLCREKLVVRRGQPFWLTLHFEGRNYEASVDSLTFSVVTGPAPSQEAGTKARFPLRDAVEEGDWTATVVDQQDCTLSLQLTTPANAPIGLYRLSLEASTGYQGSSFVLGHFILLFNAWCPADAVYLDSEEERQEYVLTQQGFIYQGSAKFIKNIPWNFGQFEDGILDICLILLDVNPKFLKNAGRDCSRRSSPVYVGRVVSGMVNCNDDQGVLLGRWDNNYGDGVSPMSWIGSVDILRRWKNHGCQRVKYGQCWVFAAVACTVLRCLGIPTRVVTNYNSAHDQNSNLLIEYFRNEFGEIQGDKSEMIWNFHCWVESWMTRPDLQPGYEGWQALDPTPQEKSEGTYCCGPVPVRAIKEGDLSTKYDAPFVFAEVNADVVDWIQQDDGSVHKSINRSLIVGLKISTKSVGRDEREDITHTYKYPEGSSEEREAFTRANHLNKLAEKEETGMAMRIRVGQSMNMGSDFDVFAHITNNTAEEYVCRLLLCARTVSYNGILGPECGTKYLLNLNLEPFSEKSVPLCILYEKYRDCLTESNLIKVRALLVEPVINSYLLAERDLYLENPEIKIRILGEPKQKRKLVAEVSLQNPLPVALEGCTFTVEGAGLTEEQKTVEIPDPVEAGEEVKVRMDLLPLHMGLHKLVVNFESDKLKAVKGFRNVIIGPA

Sequence	not cleaved [1]	stability on prolonged exposure to proteases [2]	Amount of Peptides Digested after 15 hours ([3]; sample H1P0) [%]	Amount of Peptides Digested after 15 hours ([3]; sample H2P0) [%]	Amount of Peptides Digested after 15 hours ([3]; sample H3P0) [%]	Amount of Peptides Digested after 15 hours ([3]; sample H4P0) [%]	Amount of Peptides Digested after 15 hours ([3]; sample H5P0) [%]	half-life of digestion [4] [h]	specificity of tTGase relative to its target peptide sequence in fibrinogen [5] [fold]
LQLQPFPQPQLPYPQPQLPYPQPQLPYPQPQPF	half-life of digestion >20 h; remains intact								
LQLQPFPQPQLPYPQPQLPYPQPQLPYPQPQPF [33-mer]		remained intact	<20	<20	<20	<20	<20	> 20	
PQPQLPYPQPQLPY (listed as Triticum aestivum) [α-gliadin derived tTGase substrate peptide]									5
QLQPFPQPQLPY [Control A]			>90	>61	>87	>96	>96		
WQIPEQSR [Control B]			>90	>85	>95	>95	>95		
